What was measured:
[1] = tested on: histamine and active HDC (53 kDa) in mouse epidermis and dermis; experiment: Histamine amount and HDC activation in ICR mouse skin after 10% sodium laurate (Sample Experiment 3); format: in vivo; settings: ICR mice
Experimental: Male ICR mice at ages of 7 to 8 weeks, purchased from Japan SLC, were used. They were given solid feed under free water supply and subjected to preliminary rearing for 7 days or longer under a constant temperature/constant humidity environment with a temperature of 22±2° C., and a humidity of 55±10% before they were used in the test. The mice for use were subjected to the test at least 3 days after shearing/depilating of the rostral back. A 10% aqueous solution obtained by dissolving SL in distilled water was applied as a stimulating substance against the skin at 50 μL to the sheared/depilated rostral back of the mice mentioned above. Distilled water was applied to the solvent control group (Vehicle). Note concerning FIG. 5 and FIG. 6 to be described later that the mice that were not treated with the above SL aqueous solution or distilled water are called “NT (not treated).” The amount of histamine in skin was measured before applying a surfactant, 2 hrs. after application, and 24 hrs. after application (the time of application was set to 0 hr.). Skins were collected while the mice were under anesthesia after perfusion with a phosphate buffer solution (PBS) using the cardiac blood circulation system (punched out with a biopsy punch in a circular shape of a diameter of 18 mm). The amounts of histamine in the collected skins were measured. After the collected skins were immersed in PBS at 60° C. for 30 secs., they were separated into the epidermis and the dermis. Then, the amounts of histamine in the epidermis and the dermis were measured using the measurement kit. To measure the amount of histamine, tissues of both the epidermis and the dermis were pulverized to create tissue suspensions, which were subjected to centrifugation, then supernatants were collected to measure the amounts of histamine in the supernatants.

[2] = tested on: mast cell deficient mice (WBB6F1-W/W^V) and normal control mice (WBB6F1-+/+); experiment: Scratch bouts of mice after 10% sodium laurate application (Sample Experiment 2); format: in vivo, mouse; settings: 10% SL aqueous solution 50 μL single application, 2 hrs. after application, both mast cell deficient and normal control mice
Experimental: Male mast cell deficient mice at ages of 7 to 8 weeks (WBB6F1-W/W^V mouse), purchased from Japan SLC, and normal control mice that are wild mice at ages of 7 to 8 weeks (WBB6F1-+/+mouse) were used. They were given solid feed under free water supply and subjected to preliminary rearing for 7 days or longer under a constant temperature/constant humidity environment with a temperature of 22±2° C., and a humidity of 55±10% before they were used in the test. The mice for use were subjected to the test at least 3 days after shearing/depilating of the rostral back. […] That is, a single mouse was put in each of the 4 divided sections of an acrylic box (13×9×35 cm) to be acclimated for at least 1 hr., and they were video recorded in an environment without any person to record their action. Then, by watching the video, the number of scratch bouts against the rostral back by the hind leg was counted. A series of scratching movements (movements that include scratching the rostal back, where the solution is applied, with the hind leg, then dropping the hind leg to the ground) was counted as 1 count, and the number of times scratching was performed in 60 mins. was counted by visual observation. […]

ICR mice = experiment: Scratch bouts of ICR mice after 10% SDS application (Sample Experiment 1-1); format: in vivo, mouse; settings: ICR mice of 10% SDS group at Day 3, TRF 30 mg/kg oral, 30 mins. before observation, 60 mins. count
Experimental: The present Sample Experiment was conducted using ICR mice, and an anionic surfactant, namely, sodium dodecyl sulfate (SDS), was used as a stimulating substance to analyze the scratch bouts of mice. After SDS had been applied, terfenadine (TRF) was administered as an antihistamine to determine its effect on scratch bouts.
Male ICR mice at ages of 7 to 8 weeks, purchased from Japan SLC, were used. The mice were given solid feed under free water supply and subjected to preliminary rearing for 7 days or longer under a constant temperature/constant humidity environment with a temperature of 22±2° C., and a humidity of 55±10% before they were used in the test. The mice for use were used in the test at least 3 days after shearing/depilating the rostral back of each mouse. […]
The scratch bouts of mice were performed in view of the Kuraishi et al. report. That is, a single mouse was put in each chamber of the 4 divided sections in an acrylic box (13×9×35 cm) to be acclimated for at least an hour, and they were video recorded in an environment without any person for at least an hour a day from the day of applying the above 10% SDS aqueous solution (Day 0) to the 4th day after application (Day 4) to record their movement. Then, by watching the video, the number of scratch bouts against the rostral back by the hind leg was counted. […]

[3] = 2 hrs. after 10% SL application
[4] = 24 hrs. after 10% SL application

Row | SMILES | active HDC (53 kDa) in mouse epidermis [1, 3] | histamine level in the epidermis [1, 3] | active HDC (53 kDa) in mouse epidermis [1, 4] | histamine level in the epidermis [1, 4] | histamine level of the dermis ([1]; before, 2 hrs. and 24 hrs. after 10% SL application) | scratch bouts of mice (number in 60 mins.) after stimulating substance [2] | scratch bouts of SDS-treated mice after TRF, After vs Before (ICR mice)
1 | CCCCCCCCCCCC(=O)[O-].[Na+] [SL, sodium laurate] | increased significantly | increased | returned to the pre-application level | returned to the pre-application level | no substantial change was observed | clearly increased | –
2 | CC(C)(C)c1ccc(C(O)CCCN2CCC(C(O)(c3ccccc3)c3ccccc3)CC2)cc1 (stereo not shown) [TRF, terfenadine] | – | – | – | – | – | – | effectively suppressed

— patent publication US20150335558A1, “NERVE GROWTH INHIBITOR, CUTANEOUS-SENSORY-IRRITATION INHIBITOR, AND MARKER FOR CUTANEOUS-SENSORY-IRRITATION DETECTION” (HOYU CO., LTD., priority 2012, published 2015)
